Experimental data taken from article PMC4783402 (Frontiers in Microbiology, 2016).

Key:
in vitro = details: human
L. pneumophila biofilm [1] = assay type: cell-based, Legionella pneumophila 155; details: 0.1 mM polyamino-phenolic ligand, 3-day-old biofilm treated 3 days, tap water, 37°C
planktonic E. coli = assay type: cell-based, Escherichia coli
[2] = test system: L. pneumophila/E. coli biofilm; assay type: cell-based, Legionella pneumophila 155 / Escherichia coli; details: 0.1 mM polyamino-phenolic ligand, 3-day-old biofilm treated 3 days
L. pneumophila biofilm [3] = assay type: cell-based, Legionella pneumophila 155; details: 0.1 mM polyamino-phenolic ligand added at inoculum, 3-day contact time
[4] = test system: planktonic L. pneumophila; assay type: cell-based, Legionella pneumophila; details: 0.1 mM polyamino-phenolic ligand, 24 h, PBS, 37°C
planktonic A. hydrophila = assay type: cell-based, Aeromonas hydrophila
planktonic P. aeruginosa = assay type: cell-based, Pseudomonas aeruginosa
[5] = test system: L. pneumophila/A. hydrophila biofilm; assay type: cell-based, Legionella pneumophila 155 / Aeromonas hydrophila; details: 0.1 mM polyamino-phenolic ligand added at inoculum, 3-day contact time
[6] = test system: L. pneumophila/E. coli biofilm; assay type: cell-based, Legionella pneumophila 155 / Escherichia coli; details: 0.1 mM polyamino-phenolic ligand added at inoculum, 3-day contact time
planktonic K. pneumoniae = assay type: cell-based, Klebsiella pneumoniae
[7] = test system: L. pneumophila/P. aeruginosa biofilm; assay type: cell-based, Legionella pneumophila 155 / Pseudomonas aeruginosa; details: 0.1 mM polyamino-phenolic ligand added at inoculum, 3-day contact time
[8] = test system: L. pneumophila/K. pneumonia biofilm; assay type: cell-based, Legionella pneumophila 155 / Klebsiella pneumoniae; details: 0.1 mM polyamino-phenolic ligand, 3-day-old biofilm treated 3 days
[9] = test system: L. pneumophila/A. hydrophila biofilm; assay type: cell-based, Legionella pneumophila 155 / Aeromonas hydrophila; details: 0.1 mM polyamino-phenolic ligand, 3-day-old biofilm treated 3 days
[10] = test system: L. pneumophila/K. pneumoniae biofilm; assay type: cell-based, Legionella pneumophila 155 / Klebsiella pneumoniae; details: 0.1 mM polyamino-phenolic ligand added at inoculum, 3-day contact time
[11] = test system: five-species biofilm (L. pneumophila/P. aeruginosa/A. hydrophila/E. coli/K. pneumoniae); assay type: cell-based; details: 0.1 mM polyamino-phenolic ligand added at inoculum, 3-day contact time

Row | Compound | viability (in vitro) [%] | biofilm reduction (degradation) (L. pneumophila biofilm [1]) [%] | effect on number of viable planktonic cells (planktonic E. coli) | effect on number of viable planktonic cells [4] | effect on number of viable planktonic cells (planktonic A. hydrophila) | effect on number of viable planktonic cells (planktonic P. aeruginosa) | effect on number of viable planktonic cells (planktonic K. pneumoniae) | other results
1 | NCCN(CCN)Cc1cccc(-c2cccc(CN(CCN)CCN)c2O)c1O [Bfden, 3,3′-bis(N,N-bis(2-aminoethyl)aminomethyl)-2,2′-dihydroxybiphenyl] | 97 | – | – | – | – | – | – | –
2 | NCCNCCNCc1cc(-c2ccc(O)c(CNCCNCCN)c2)ccc1O [Bisom, 3,3′-bis(N-(N-(2-aminoethyl)-2-aminoethyl)aminomethyl)-4,4′-dihydroxybiphenyl] | 72 | – | – | – | – | – | – | –
3 | NCCN(CCN)Cc1cc(-c2ccc(O)c(CN(CCN)CCN)c2)ccc1O [Dimo, 3,3′-bis(N,N-bis(2-aminoethyl)aminomethyl)-4,4′-dihydroxybiphenyl] | 58 | 27 | – | – | – | – | – | –
4 | Oc1c2cccc1CNCCN(CCNCCCNCCNCCCNCCN1CCNCc3cccc(c3O)CNCC1)CCNC2 [Double Macrophen, 1,16-bis(3,6,9-triaza-15-hydroxybicyclo(9.3.1)pentadeca-11,13,1^15-trien-6-yl)-3,7,10,14-tetraazahexadecane] | 95 | 32 | did not reduce the number of viable cells | did not reduce the number of viable cells | did not reduce the number of viable cells | did not reduce the number of viable cells | did not reduce the number of viable cells | biofilm reduction (degradation) [2]: 39%; biofilm formation inhibition (L. pneumophila biofilm [3]): 48%; biofilm formation inhibition [5]: 34%; biofilm formation inhibition [6]: 42%
5 | NCCN1CCNCc2cccc(c2O)CNCC1 [Macrophen, 2-(3,6,9-triaza-15-hydroxybicyclo(9.3.1)pentadeca-11,13,1^15-trien-6-yl)ethylamine] | – | 27 | did not reduce the number of viable cells | did not reduce the number of viable cells | did not reduce the number of viable cells | did not reduce the number of viable cells | did not reduce the number of viable cells | biofilm formation inhibition [7]: 26%; biofilm reduction (degradation) [8]: 33%; biofilm reduction (degradation) [9]: 33%; biofilm formation inhibition [10]: 24%; biofilm formation inhibition [11]: 27%
